Data as given in paper PMC6582431 (Chemmedchem, 2018).
Read-outs that look alike come from different tables or passages of the source.

How the values were obtained:
FAAH [1] = biological target: T1, FAAH (Mus musculus, UniProt O08914); test: In vivo FAAH inhibition, liver, after oral administration to mice; settings: for in vivo FAAH inhibitory activity, liver: 0.1 mg kg^−1, mouse, p.o., text b31; for time of maximum inhibitory effect in the liver: 0.1 mg kg^−1 p.o., mice, post-dose
T1 sequence (O08914 1-579): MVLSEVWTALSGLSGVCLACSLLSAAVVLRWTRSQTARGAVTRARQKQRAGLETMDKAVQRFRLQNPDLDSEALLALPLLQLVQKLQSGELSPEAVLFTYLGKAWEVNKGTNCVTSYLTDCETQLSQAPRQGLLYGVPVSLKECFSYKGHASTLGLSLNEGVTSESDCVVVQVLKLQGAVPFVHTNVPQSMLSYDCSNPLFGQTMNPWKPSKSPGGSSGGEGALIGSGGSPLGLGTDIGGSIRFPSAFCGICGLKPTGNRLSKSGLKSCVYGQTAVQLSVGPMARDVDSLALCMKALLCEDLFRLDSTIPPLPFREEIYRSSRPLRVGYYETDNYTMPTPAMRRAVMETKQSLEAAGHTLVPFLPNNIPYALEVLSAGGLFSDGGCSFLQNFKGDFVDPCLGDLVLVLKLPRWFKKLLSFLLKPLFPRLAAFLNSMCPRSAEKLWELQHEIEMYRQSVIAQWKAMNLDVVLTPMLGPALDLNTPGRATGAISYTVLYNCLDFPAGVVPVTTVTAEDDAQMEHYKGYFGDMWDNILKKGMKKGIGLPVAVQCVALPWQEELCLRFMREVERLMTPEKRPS

carboxylesterases (CEs) = test: CE activity in rat liver microsomes; type: biochemical; settings: for CEs (10 μM), percent of control: 10 μM in rat liver microsomes; for CEs activity, percent of control: C inhib=10 μM in rat liver microsomes, Table 2; for selectivity over CEs: text b31
MAGL = biological target: T2, MAGL (Rattus norvegicus, UniProt Q8R431); test: MAGL activity in rat cerebellum cytosol; type: biochemical; settings: for MAGL activity, percent of control / MAGL (100 μM), percent of control: C inhib=100 μM in rat cerebellum cytosol; for MAGL activity, percent of control: Table 2; for selectivity over MAGL: text b31
T2 sequence (Q8R431 1-303): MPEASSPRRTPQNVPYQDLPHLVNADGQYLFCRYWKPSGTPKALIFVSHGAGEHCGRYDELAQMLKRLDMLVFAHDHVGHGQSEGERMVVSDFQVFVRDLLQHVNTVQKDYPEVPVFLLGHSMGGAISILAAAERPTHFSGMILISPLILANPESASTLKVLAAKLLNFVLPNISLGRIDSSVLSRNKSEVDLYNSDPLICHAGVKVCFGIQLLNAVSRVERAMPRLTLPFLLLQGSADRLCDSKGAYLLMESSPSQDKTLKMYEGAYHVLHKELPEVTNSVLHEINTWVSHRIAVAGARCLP

FAAH [2] = settings: read-out: FAAH IC50 (in vitro potency); cited from earlier work
FAAH [3] = biological target: T1, FAAH; test: In vivo FAAH inhibition, brain, after oral administration to mice; settings: for in vivo FAAH inhibitory activity, brain: text b31; for time of maximal inhibitory effect in the brain (t max): post-dose; for ED50 cerebral FAAH: 0.001 to 3 mg kg^−1, 8 h post-administration
[4] = CYP450 metabolic stability, mouse liver microsomes; type: in vitro ADME; settings: 1 h incubation; for CYP450 metabolic stability, Mouse, percent of remaining: 5 μM in liver microsomes; for CYPs (50 μM), percentage remaining: C inhib=50 μM in mouse liver microsomes
[5] = CYP450 metabolic stability, rat liver microsomes; type: in vitro ADME; settings: 5 μM in liver microsomes, 1 h incubation
[6] = CYP450 metabolic stability, dog liver microsomes; type: in vitro ADME; settings: 5 μM in liver microsomes, 1 h incubation
[7] = CYP450 metabolic stability, primate liver microsomes; type: in vitro ADME; settings: 5 μM in liver microsomes, 1 h incubation
[8] = CYP450 metabolic stability, human liver microsomes; type: in vitro ADME; settings: 5 μM in liver microsomes, 1 h incubation
FAAH [9] = biological target: T3, FAAH (Rattus norvegicus, UniProt P97612); test: In vitro FAAH activity in rat brain homogenates/membranes; type: biochemical; settings: for FAAH activity, percent of control, 10 nM / FAAH activity, percent of control, 100 nM: rat brain homogenates, 15 min pre-incubation
T3 sequence (P97612 1-579): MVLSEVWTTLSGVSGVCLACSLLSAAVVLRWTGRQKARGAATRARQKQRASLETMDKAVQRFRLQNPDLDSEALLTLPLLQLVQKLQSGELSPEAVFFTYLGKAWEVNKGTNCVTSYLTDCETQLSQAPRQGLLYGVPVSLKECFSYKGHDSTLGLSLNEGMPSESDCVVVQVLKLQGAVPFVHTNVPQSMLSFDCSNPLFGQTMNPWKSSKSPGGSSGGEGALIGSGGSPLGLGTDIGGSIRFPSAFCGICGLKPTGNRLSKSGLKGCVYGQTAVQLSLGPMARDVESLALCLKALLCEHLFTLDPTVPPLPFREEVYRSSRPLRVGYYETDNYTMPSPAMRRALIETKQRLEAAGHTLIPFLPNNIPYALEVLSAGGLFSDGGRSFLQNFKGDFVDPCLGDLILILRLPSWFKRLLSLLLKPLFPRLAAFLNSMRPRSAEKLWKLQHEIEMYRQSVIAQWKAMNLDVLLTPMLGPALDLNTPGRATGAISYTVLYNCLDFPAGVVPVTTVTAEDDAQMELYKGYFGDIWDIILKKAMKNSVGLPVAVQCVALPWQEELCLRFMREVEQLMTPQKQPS

[10] = 0.1 mg kg^−1 p.o. in mice, 8 h after administration, Table 4
[11] = 30 mg kg^−1 p.o. in mice, 1 h after administration, Table 2
[12] = mouse, po, 8 h, read-out: ED50 liver FAAH
[13] = 0.1 mg kg^−1 p.o. in mice, 8 h after administration, Table 5

Liver FAAH activity, percent of control (FAAH [1]; [10])	Liver FAAH activity, percent of control (FAAH [1]; [11])	MAGL activity, percent of control (MAGL)	MAGL (100 μM), percent of control (MAGL; Table 4)	Brain FAAH activity, percent of control (FAAH [3]; [10])	Brain FAAH activity, percent of control (FAAH [3]; [11])	CYP450 metabolic stability, Mouse, percent of remaining [4]	CYPs (50 μM), percentage remaining [4]	CYP450 metabolic stability, Rat, percent of remaining [5]	CYP450 metabolic stability, Dog, percent of remaining [6]	CYP450 metabolic stability, Primate, percent of remaining [7]	CYP450 metabolic stability, Human, percent of remaining [8]	FAAH activity, percent of control, 10 nM (FAAH [9]; Table 2)	FAAH activity, percent of control, 100 nM (FAAH [9]; Table 2)	SMILES	CEs (10 μM), percent of control (carboxylesterases (CEs); Table 4)	CEs activity, percent of control (carboxylesterases (CEs))	also measured
74±20% of control	6±1% of control	87±4% of control	87±4% of control	91±7% of control	9±2% of control									NC(=O)c1cccc(-c2cccc(OC(=O)NC3CCCCC3)c2)c1 [Compound 2, URB597, reference compound]	[…]	[…]	inhibition at 30 mg/kg (FAAH [1]; mouse, po, read-out: FAAH inhibition in the liver): > 90%; IC50 (FAAH [2]): […]; FAAH inhibition in the brain (FAAH [3]; 30 mg kg^−1 p.o., mice, 1 h post-administration): over 90%
6±1% of control			96±2% of control	6±1% of control		87±9% of remaining	67±2 percentage remaining	87±0% of remaining	101±6% of remaining	57±3% of remaining	96±8% of remaining			CC1(C)COCN1C(=O)n1nnc2cc(C(N)=O)ccc21 [Compound 11 h, 1‐(4,4‐Dimethyloxazolidine‐3‐carbonyl)‐1H‐benzo[d][1,2,3]triazole‐5‐carboxamide]	81±7% of control		in vivo FAAH inhibitory activity, liver (FAAH [1]): > 90 % of control; time of maximum inhibitory effect in the liver (FAAH [1]): 1 h; ED50 (FAAH [1]; [12]): 7 µg/kg; inhibition at 0.1 mg/kg (FAAH [1]; mouse, po, read-out: peripheral inhibition of FAAH sustained over the next 7 h): > 90%; selectivity over CEs (carboxylesterases (CEs)): > 80 % of control; selectivity over MAGL (MAGL): > 80 % of control; in vivo FAAH inhibitory activity, brain (FAAH [3]; 0.1 mg kg^−1, mouse, p.o.): > 90 % of control; time of maximal inhibitory effect in the brain (t max) (FAAH [3]; 0.1 mg kg^−1 p.o., mice): 1 h; ED50 cerebral FAAH (FAAH [3]; mice, p.o.): 14 µg/kg
16±6% of control			67±12% of control	77±29% of control			8±2 percentage remaining							CC1(C)COCN1C(=O)n1nnc2ccc(Br)cc21 [Compound 11 b, (6‐Bromo‐1H‐benzo[d][1,2,3]triazol‐1‐yl)(4,4‐dimethyloxazolidin‐3‐yl)methanone]	73±9% of control		
	84±6% of control	4±1% of control			87±7% of control							13±1% of control	2±1% of control	O=C(NCc1ccccc1)n1nnc2ccccc21 [Compound 10 e]		67±4% of control	
54±6% of control				76±18% of control			73±2 percentage remaining							CC1(C)COCN1C(=O)n1nnc2ccc(-c3ccccc3)cc21 [Compound 11 d, (4,4‐Dimethyloxazolidin‐3‐yl)(6‐phenyl‐1H‐benzo[d][1,2,3]triazol‐1‐yl)methanone]	92±2% of control		
10±4% of control	2±1% of control	90±5% of control	90±5% of control	24±7% of control	0±0% of control	5±0% of remaining	25±2 percentage remaining	26±0% of remaining	1±0% of remaining	0±0% of remaining	52±9% of remaining	78±25% of control	2±1% of control	CC1(C)COCN1C(=O)n1nnc2ccccc21 [Compound 11 a]	81±6% of control	81±6% of control	IC50 (FAAH [9]): 19 nM; ED50 (FAAH [1]; mouse, po, 1 h, read-out: ED50 liver (peripheral) FAAH): 7 µg/kg; ED50 brain (cerebral) FAAH (FAAH [3]; mouse, p.o., 0.001–3.0 mg kg^−1, 1 h post-dose): 61 µg/kg
	15±4% of control	7±4% of control			20±5% of control							0±0% of control	0±0% of control	Cl.O=C(N1CCN(Cc2ccccc2)CC1)n1nnc2ccccc21 [Compound 10 i]		27±1% of control	
						62±0% of remaining		88±6% of remaining	54±0% of remaining	41±3% of remaining	75±4% of remaining			CN(C(=O)n1cnc(-c2ccccc2)c1)C1CCN(Cc2ccccc2)CC1 [Compound 8 h]			FAAH activity, percent of control, 100 nM (FAAH [9]; Table 5): 41±7% of control; in vivo FAAH inhibitory activity, liver (FAAH [1]): > 90 % of control; Liver FAAH activity, percent of control (FAAH [1]; [13]): 10±2% of control; time of maximum inhibitory effect in the liver (FAAH [1]): 1 h; ED50 (FAAH [1]; [12]): 28 µg/kg; inhibition at 0.1 mg/kg (FAAH [1]; mouse, po, read-out: peripheral (liver) FAAH inhibition): > 90%; CEs (10 μM), percent of control (carboxylesterases (CEs); Table 5): 97±8% of control; selectivity over CEs (carboxylesterases (CEs)): > 80 % of control; MAGL (100 μM), percent of control (MAGL; Table 5): 92±8% of control; selectivity over MAGL (MAGL): > 80 % of control; cerebral (brain) FAAH inhibition (FAAH [3]; 0.1 mg kg^−1, mouse, p.o., 8 h post-dose): over 90%; in vivo FAAH inhibitory activity, brain (FAAH [3]; 0.1 mg kg^−1, mouse, p.o.): > 90 % of control; Brain FAAH activity, percent of control (FAAH [3]; [13]): 11±4% of control; time of maximal inhibitory effect in the brain (t max) (FAAH [3]; 0.1 mg kg^−1 p.o., mice): 8 h; central FAAH inhibition maintained up to 48 h post-administration (FAAH [3]; 0.1 mg kg^−1 p.o., mice, up to 48 h): > 50%; ED50 cerebral FAAH (FAAH [3]; mice, p.o.): approximately 79 μg kg^−1
	1±0% of control	73±3% of control			0±0% of control							1±0% of control	1±2% of control	CN(C(=O)n1nnc2ccccc21)C1CCCCC1 [Compound 10 k]		30±1% of control	
